Experimental findings from publication PMC5421877, “SOCS3 inhibits the pathological effects of IL-22 in non-melanoma skin tumor-derived keratinocytes” (Oncotarget, 2017) are described below.

Test [1] relates to SCC-cell lines (CAL27 and CAL33). Kind of test: CyQUANT proliferation assay, SCC-cell lines. Particulars: PD98059 20 μM or S3I-201 10 μM, 48 h. It counts as cell-based. The method, then: (§1) Figure 6 IL-22-induced proliferation and migration of healthy and transformed keratinocytes is counteracted by KIR-ESS peptide (A) Healthy KC, CAL27 and CAL33 cultures were plated in 96-well plates in quadruplicate for each condition. After 1 day, cells were pre-treated or not with Ctrl1 or KIR-ESS peptides (40 μM), or S31-201 ([…]) and PD98059 ([…]) chemical inhibitors, and, then, stimulated or not with 50 ng/ml of IL-22. Data relative to 48-h treatment are shown and expressed as the values of fluorescence intensity obtained from untreated and IL-22-treated ± SD. Three independent experiments were performed. *p < 0.01. […] (C) Cell-free area was measured and indicated as residual wound. […]
(§2) SOCS1- and SOCS3 stably transfected keratinocytes or cultured keratinocytes previously transfected with SOCS3 or control siRNA were seeded in 96-well plates (1.5–2.0 × 10^4 cells/well), and, the day after, starved in medium without serum. At 60% confluence, cells were treated with 75 ng/ml of IL-22 for 3 days, stained with 0.5% crystal violet (Bio-Rad, Hercules, CA, USA), and then analyzed in an ELISA reader (model 3550 UV ELISA reader; Bio-Rad). […] After 1-h pre-incubation, cells were treated with IL-22 or left unstimulated, cultured for other 24, 48 and 72 h, and the number of viable cells determined by CyQUANT Cell Proliferation Assay, accordingly to manufacture's protocol. […]

The next test has as its system CAL33 cells. Kind of test: Scratch assay (migration), CAL33. The format is cell-based. To be noted: 24 h. On the procedure:
(§3) Figure 6 IL-22-induced proliferation and migration of healthy and transformed keratinocytes is counteracted by KIR-ESS peptide (A) Healthy KC, CAL27 and CAL33 cultures were plated in 96-well plates in quadruplicate for each condition. After 1 day, cells were pre-treated or not with Ctrl1 or KIR-ESS peptides (40 μM), or S31-201 ([…]) and PD98059 ([…]) chemical inhibitors, and, then, stimulated or not with 50 ng/ml of IL-22. Data relative to 48-h treatment are shown and expressed as the values of fluorescence intensity obtained from untreated and IL-22-treated ± SD. Three independent experiments were performed. *p < 0.01. (B) Scratch assays were carried out on healthy or SCC-lines, pre-incubated with mitomycin C (5 mg/ml), pre-treated with Ctrl1 or KIR-ESS peptides (40 μM), or S31-201 ([…]) or PD98059 ([…]) chemical inhibitors, and, then, stimulated or not with IL-22 for 24 h. Microscopic images were taken immediately after and 24 h after wound induction on confluent cell layers. Initial scratches (0 h) are dashed blank. (C) Cell-free area was measured and indicated as residual wound. Data are reported as healed wound (gray area of bars) vs residual wound (white area of bars) which a value of 100% was given. *p < 0.01.
(§4) Cultured keratinocytes and SCC cell lines were grown at 100% confluence on type IV collagen (20 μg/ml), and then incubated with mitomycin C (5 mg/ml) (Sigma-Aldrich) for 1 h. Cell monolayers were scratched with the tip of a p-200 pipette to create uniform cell-free zones, and, then, pre-treated with appropriate concentrations of SOCS3 mimetic or control peptides, or with 10 μM STAT3 (S3I-201, Santa Cruz) and 20 μM Erk1/2 (PD98059, Calbiochem) inhibitors for 1 h, before treating by 50 ng/ml of IL-22. Microscopy pictures were taken with a digital camera at different time points following IL-22 treatment. The residual gap between migrating keratinocytes was measured with a computer-assisted image analysis system (Axiovision; Zeiss, Oberkochen, Germany), and expressed as percentage of the initial scratched area.

Test [2] has as its system healthy keratinocytes. Kind of test: Scratch assay (migration), healthy keratinocytes. It counts as cell-based, human. Particulars: without IL-22, 40 μM peptide or PD98059 20 μM, 24 h. On the procedure: as §1, with “0.01. (B) Scratch assays were carried out on healthy or SCC-lines, pre-incubated with mitomycin C (5 mg/ml), pre-treated with Ctrl1 or KIR-ESS peptides (40 μM), or S31-201 ([…]) or PD98059 ([…]) chemical inhibitors, and, then, stimulated or not with IL-22 for 24 h.” for “0.01.”
Cultured keratinocytes and SCC cell lines were grown at 100% confluence on type IV collagen (20 μg/ml), and then incubated with mitomycin C (5 mg/ml) (Sigma-Aldrich) for 1 h. […] The residual gap between migrating keratinocytes was measured with a computer-assisted image analysis system (Axiovision; Zeiss, Oberkochen, Germany), and expressed as percentage of the initial scratched area.

A further test deals with CAL27 cells. Kind of test: Scratch assay (migration), CAL27. It counts as cell-based. To be noted: CAL27; 40 μM peptide, PD98059 20 μM or S3I-201 10 μM; IL-22 50 ng/ml, 24 h. On the procedure:
as §3, §4

In test [3] the test system is healthy keratinocytes. As to the kind of experiment: CyQUANT proliferation assay, healthy keratinocytes. The format is cell-based, human. Particulars: healthy KC; PD98059 20 μM or S3I-201 10 μM, 48 h. On the procedure:
as §1, §2

As to `COc1cccc(-c2cc(=O)c3ccccc3o2)c1N` [PD98059], the “proliferation (effect relative to KIR-ESS)” value in test [1] was “KIR-ESS effect was similar to that observed in all healthy and transformed keratinocyte cultures”; in the test with healthy keratinocytes [3], “KIR-ESS effect was similar to that observed in all healthy and transformed keratinocyte cultures”. For the same molecule, the “wound closure / migration, resting cells” value in the test on CAL33 cells (CAL33, without IL-22, 40 μM peptide or PD98059 20 μM) was “efficacious in inhibiting migration of CAL27 cells and healthy or CAL33 keratinocytes, respectively”; with healthy keratinocytes [2], “efficacious in inhibiting migration of CAL27 cells and healthy or CAL33 keratinocytes, respectively”. Besides, the “wound closure, IL-22-treated” value in the test on CAL33 cells (CAL33, 40 μM peptide, PD98059 20 μM or S3I-201 10 μM, IL-22 50 ng/ml) was “effect similar to those obtained with the chemical Erk1/2 and STAT3 inhibitors”; in the test with CAL27 cells, “effect similar to those obtained with the chemical Erk1/2 and STAT3 inhibitors”.
